Experimental data as given in patent publication US20240261258A1, “Presurgical Perineural Administration of Resiniferatoxin For Reduction of Post-Operative Pain” (Sorrento Therapeutics, Inc., priority 2021, published 2024).
“And” between values parts separate entries of the source, which are not always exact repeats. Equal entries are not always repeated.

Legend:
Assay type in all cases: in vivo, dog
[1] = tested on: stifle of dogs after TPLO; assay: Radiographic, CT and MRI evaluation of bone healing; details: for Pattern of healing N (no findings), No. of Dogs / Pattern of healing S (soft tissue swelling with normal bone healing), No. of Dogs / Pattern of healing S&B (soft tissue swelling and delayed bone healing), No. of Dogs: 4 dogs
Protocol: Radiographs of the stifle were performed before surgery, the day after surgery, at day 28, and at day 56. Dogs were sedated to allow for correct positioning of the leg and to minimize stress from handling. Standardized TPLO views (lateral and caudal-cranial) were acquired. An MRI and CT were also performed on the operated leg after the animals were euthanized and the surgical plate was removed (day 56).
Orthogonal plane radiographs of the stifle were obtained for all dogs at all timepoints. After euthanasia, CT was obtained in 11 of the 14 dogs and MRI in all dogs. Metal artifact due to the presence of a broken screw prevented the evaluation of one MR study. Soft tissues could not be reliably assessed due to disruption secondary to removal of the plate. There was no evidence of implant failure or suboptimal osteotomy repair in any dog. Upon review of all imaging modalities, three patterns of healing emerged (Table 9a).
The delay of bone healing refers to a slower bone healing process as compared to the findings in the rest of the dogs in this study. This is not to be considered as an absolute delayed bone healing since the dogs were only enrolled in the study for 56 days

[2] = tested on: SP nerve axons of sciatic and femoral nerves; assay: Quantification of SP immunopositive nerve fibers; details: for Density of SP nerve axons in the ipsilateral femoral nerve: not statistically significant
Protocol: FIGS. 2A-J show density of SP nerve axons in representative confocal images of ipsilateral (left; A-D) and contralateral (right; E-H) sciatic nerve from dogs post-TPLO and after different treatment and doses of RTX. Each bar represents the mean±SEM. Data were analyzed by one-way ANOVA followed by Tukey post hoc test; *p<0.05. FIGS. 2I-J are bar graphs of the density of SP nerve axons (density of nerve fibers in mm/mm3) in ipsilateral (I), and contralateral (J) sciatic nerves as measured in n subjects in each group.
FIGS. 4A-J show the density of SP-immunoreactive axons in representative confocal images showing the presence of […] axons from ipsilateral (A-D) and contralateral (E-H) canine femoral nerves from dogs post-TPLO and after treatment of RTX. Each bar represents the mean±SEM. FIGS. 4I-J are bar graphs of the density of SP nerve axons (density of nerve fibers in mm/mm3) in ipsilateral (I), and contralateral (J) femoral nerves as measured in n subjects in each group.
FIG. 4 illustrates the effect of RTX on SP density in nerve fibers innervating the ipsilateral (FIG. 4A-D) and contralateral (FIG. 4E-H) femoral nerves from dogs post-TPLO.

[3] = RTX plasma concentrations after nerve block or local application
Protocol: Fourteen adult female beagle dogs, weighing 11.9±0.6 kg and between 3-5 years of age, were enrolled in this study. Each animal was randomly assigned to one of four groups. Four dogs (group 1) received a femoral and sciatic nerve block with 12.5 μg RTX per nerve (25 μg RTX total) diluted with sterile saline for a total volume of 2 mL (half volume per block). Another four dogs (group 2) received a femoral and a sciatic nerve block with 3.12 μg RTX per nerve block (6.25 μg RTX total) diluted with sterile saline for a total volume of 2 mL (half volume per block). Group 3 (4 animals) received a femoral and sciatic nerve block with 5 mg bupivacaine total (standard of care) plus a total of 50 μg RTX (total volume of 4 mL, concentration 12.5 μg/mL) applied locally to the cut on the tibia for 10 min. Group 4 (2 animals) was the control group and received a femoral and a sciatic nerve block with 5 mg bupivacaine total (standard of care).
Blood (4-5 mL) was collected at the beginning of the study for complete blood count and chemistry parameters. Another 2 mL sample was collected at time 0 (baseline), 5, 15, 45, 60, and 90 minutes, and at 2, 3, 4, 6, and 8 hours after RTX administration for pharmacokinetic analysis to determine how plasma levels of RTX change over time. Dog plasma samples were extracted using an organic solvent mixture, dried under nitrogen, reconstituted and analyzed by reversed-phase HPLC. The mobile phase was nebulized using heated nitrogen in a Z-spray source/interface set to electrospray positive ionization mode. The ionized compounds are detected using tandem mass spectrometry or MS/MS.
RTX Plasma concentrations (pg/mL) were measured in the dogs following administration of RTX solution as femoral and sciatic nerve blocks.

## C=C(C)[C@]12C[C@@H](C)[C@@]34O[C@](Cc5ccccc5)(O[C@@H]1[C@@H]3C=C(COC(=O)Cc1ccc(O)c(OC)c1)C[C@]1(O)C(=O)C(C)=C[C@@H]41)O2 [RTX, resiniferatoxin]
[1]; Group 1 (high dose)
  Pattern of healing N (no findings), No. of Dogs: 1
  Pattern of healing S (soft tissue swelling with normal bone healing), No. of Dogs: 2
  Pattern of healing S&B (soft tissue swelling and delayed bone healing), No. of Dogs: 1
[1]; Group 2 (low dose)
  Pattern of healing N (no findings), No. of Dogs: 2
  Pattern of healing S (soft tissue swelling with normal bone healing), No. of Dogs: 1
  Pattern of healing S&B (soft tissue swelling and delayed bone healing), No. of Dogs: 1
[1]; Group 3 (local)
  Pattern of healing N (no findings), No. of Dogs: 1
  Pattern of healing S (soft tissue swelling with normal bone healing), No. of Dogs: 1
  Pattern of healing S&B (soft tissue swelling and delayed bone healing), No. of Dogs: 2
[1]; distribution of healing patterns among the treatment groups
  Effect on the bone healing process: did not adversely affect the bone healing process
[2]; RTX treated groups, p=0.9122, p=0.9995, p=0.9971
  Density of SP nerve axons in the contralateral sciatic nerve vs control treatment: did not affect
[2]; RTX treatment, p=0.9907, p=0.8812, p=0.9066
  Density of SP nerve axons in the contralateral femoral nerve: did not have an effect
[2]; local administration (50 μg), p=0.0155
  Density of SP axons of the ipsilateral sciatic nerve vs control treatment: statistically significant reduction
[2]; peri-neural 3.12 μg per nerve (6.25 μg total), p=0.0335
  Density of SP axons of the ipsilateral sciatic nerve vs control treatment: statistically significant reduction
[2]; peri-neural 3.12 μg per nerve, p=0.8519
  Density of SP nerve axons in the ipsilateral femoral nerve: marked trend in reducing density
[2]; peri-neural 12.5 μg per nerve (25 μg total), p=0.0112
  Density of SP axons of the ipsilateral sciatic nerve vs control treatment: statistically significant reduction
[2]; peri-neural 12.5 μg per nerve, p=0.1216
  Density of SP nerve axons in the ipsilateral femoral nerve: marked trend in reducing density
[3]; Group 1 High Dose, 25 μg total F/Sc nerve block, 45 min, dogs 0271, 2968, 3837, 5635 in c3-c6
  Plasma concentrations for RTX: BQL (BQL—Below the Quantifiable Limit < 50.0 pg/mL)
[3]; Group 1 High Dose, 25 μg total F/Sc nerve block, 60 min, dogs 0271, 2968, 3837, 5635 in c3-c6
  Plasma concentrations for RTX: BQL (BQL—Below the Quantifiable Limit < 50.0 pg/mL)
[3]; Group 1 High Dose, 25 μg total F/Sc nerve block, 6 h, dogs 0271, 2968, 3837, 5635 in c3-c6
  Plasma concentrations for RTX: 0.0941 ng/mL and 0.182 ng/mL and 0.13 ng/mL
[3]; Group 1 High Dose, 25 μg total F/Sc nerve block, 8 h, dogs 0271, 2968, 3837, 5635 in c3-c6
  Plasma concentrations for RTX: 0.0623 ng/mL and 0.117 ng/mL and 0.0991 ng/mL
[3]; Group 1 High Dose, 25 μg total F/Sc nerve block, Predose, dogs 0271, 2968, 3837, 5635 in c3-c6
  Plasma concentrations for RTX: BQL (BQL—Below the Quantifiable Limit < 50.0 pg/mL)
[3]; Group 2 Low Dose, 6.25 μg total F/Sc nerve block, 0 min, dogs 2561, 3743, 4681, 5686 in c3-c6
  Plasma concentrations for RTX: BQL (BQL—Below the Quantifiable Limit < 50.0 pg/mL)
[3]; Group 2 Low Dose, 6.25 μg total F/Sc nerve block, 5 min, dogs 2561, 3743, 4681, 5686 in c3-c6
  Plasma concentrations for RTX: BQL (BQL—Below the Quantifiable Limit < 50.0 pg/mL)
[3]; Group 2 Low Dose, 6.25 μg total F/Sc nerve block, 15 min, dogs 2561, 3743, 4681, 5686 in c3-c6
  Plasma concentrations for RTX: BQL (BQL—Below the Quantifiable Limit < 50.0 pg/mL)
[3]; Group 2 Low Dose, 6.25 μg total F/Sc nerve block, 45 min, dogs 2561, 3743, 4681, 5686 in c3-c6
  Plasma concentrations for RTX: BQL (BQL—Below the Quantifiable Limit < 50.0 pg/mL)
[3]; Group 2 Low Dose, 6.25 μg total F/Sc nerve block, 60 min, dogs 2561, 3743, 4681, 5686 in c3-c6
  Plasma concentrations for RTX: BQL (BQL—Below the Quantifiable Limit < 50.0 pg/mL)
[3]; Group 2 Low Dose, 6.25 μg total F/Sc nerve block, 6 h, dogs 2561, 3743, 4681, 5686 in c3-c6
  Plasma concentrations for RTX: BQL (BQL—Below the Quantifiable Limit < 50.0 pg/mL)
